In patent publication US5008271A, “DC-88A derivatives” (Kyowa Hakko Kogyo Co., Ltd., priority 1988, dated 1991):
pIC50: −log10 of the molar value. Where two headings read alike, the source gives them in different places.

Key:
HeLa S3 cells = assay: Growth inhibition test using HeLa S3 cells; type: cell-based
Description: The pharmacological activity of Compound (I), Compound (II) and Compound (III) was determined by growth inhibition test using HeLa S3 cells.
Test on growth inhibition of HeLa S3 cells:
HeLa S3 cells diluted to 3×10^4 cells/ml with MEM medium containing 10% calf fetal serum and 2 mM glutamine were separately distributed by 0.1 ml each in each well of a 96 well microtiter plate.
After culturing at 37° C. overnight in a CO2 incubator, 0.05 ml each of a test sample appropriately diluted with MEM medium was added to each well.
After culturing the cells for 72 hours in the CO2 incubator, the culture supernatant was removed. After washing once with phosphate buffered physiological saline (PBS), 0.1 ml each of MEM medium containing 0.02% neutral red was added to each well and then cultured at 37° C. for an hour in the CO2 -incubator to stain the cells. After removing the culture supernatant, the cells were washed once with physiological saline, and the dye was extracted with 0.001 N HCl/30% ethanol. Absorbance at 550 nm of the extract was measured with a microplate reader. By comparing absorbance of extract of intact cells with that of the cells treated with a test compound in known concentrations IC50, i.e. the concentration which inhibited growth of the cells by 50% was determined.

dd strain male mice = assay: Acute toxicity test (minimum lethal dose); type: in vivo; settings: intraperitoneal, mortality observed for 14 days
Description: Using dd strain male mice weighing 20 ±l g, a test compound was intraperitoneally administered. MLD (the minimum lethal dose) was determined by observing the mortality for 14 days after administration.

various bacteria = settings: against various bacteria; cited from earlier work
[1] = test system: lymphocytic leukemia P388; settings: lymphocytic leukemia P388, etc.; cited from earlier work
[2] = Homo sapiens, HeLa S3, 72 h, read-out: IC50 (concentration which inhibited growth of the cells by 50%), HeLa S3 cells, 72 hours, neutral red staining
[3] = Homo sapiens, HeLa S3 cells, 72 hours, neutral red staining, read-out: IC50 (concentration which inhibited growth of the cells by 50%)

SMILES | pIC50 (HeLa S3 cells; [2]) | Acute Toxicity (MLD), minimum lethal dose (dd strain male mice) | pIC50 (HeLa S3 cells; [3]) | also measured
COC(=O)C1(C)Nc2c(O)cc3c(c2C1=O)C(CBr)CN3C(=O)c1cc2cc(OC)c(OC)c(OC)c2[nH]1 (stereo not drawn) [DC-89B2, reference compound] | 10.85 | – | – | –
COC(=O)C1(C)Nc2c(OC(=O)N(C)C)cc3c(c2C1=O)C(CBr)CN3C(=O)c1cc2cc(OC)c(OC)c(OC)c2[nH]1 (stereo not drawn) [Compound 13] | – | 2.5 mg/kg | – | –
COc1cc2cc(C(=O)N3CC(CBr)c4c3cc(O)c3c4C(=O)C(C)(C(=O)OCc4ccccc4)N3)[nH]c2c(OC)c1OC (stereo not drawn) [Compound 21] | – | – | 8.72 | –
COc1cc2cc(C(=O)N3CC(CBr)c4c3cc(O)c3c4C(O)C(C)(COC(C)=O)N3)[nH]c2c(OC)c1OC (stereo not drawn) [Compound 27] | – | – | 8.48 | –
COC(=O)C1(C)Nc2c(O)cc3c(c2C1O)C(CBr)CN3C(=O)c1cc2cc(OC)c(OC)c(OC)c2[nH]1 (stereo not drawn) [Compound 6] | – | 1.3 mg/kg | – | pIC50 (HeLa S3 cells; read-out: IC50 (concentration which inhibited growth of the cells by 50%), HeLa S3 cells, 72 hours, neutral red staining): 9.70
COC(=O)C1(C)Nc2c(O[Si](C)(C)C(C)(C)C)cc3c(c2C1=O)C(CBr)CN3C(=O)c1cc2cc(OC)c(OC)c(OC)c2[nH]1 (stereo not drawn) [Compound 1] | – | 0.25 mg/kg | – | –
CCOC(=O)C1(C)Nc2c(O)cc3c(c2C1=O)C(CBr)CN3C(=O)c1cc2cc(OC)c(OC)c(OC)c2[nH]1 (stereo not drawn) [Compound 17] | – | – | 10.72 | –
COC(=O)C1(C)Nc2c(O)cc3c(c2C1O)C(CBr)CN3C(=O)c1cc2cc(OC)c(OC)c(OC)c2[nH]1 (stereo not drawn) [Compound 5] | 9.59 | 0.63 mg/kg | – | –
C=CCOC(=O)C1(C)Nc2c(O)cc3c(c2C1=O)C(CBr)CN3C(=O)c1cc2cc(OC)c(OC)c(OC)c2[nH]1 (stereo not drawn) [Compound 19] | – | – | 9.03 | –
CCCCCCCCCCCC(=O)Oc1cc2c(c3c1NC(C)(C(=O)OC)C3=O)C(CBr)CN2C(=O)c1cc2cc(OC)c(OC)c(OC)c2[nH]1 (stereo not drawn) [Compound 15] | 10.38 | 0.5 mg/kg | – | –
COC(=O)C1(C)NC2=C(C1=O)C13CC1CN(C(=O)c1cc4cc(OC)c(OC)c(OC)c4[nH]1)C3=CC2=O (stereo not drawn) [DC-88A] | 10.41 | – | – | antibacterial activity (various bacteria): exhibits not only an antibacterial activity against various bacteria; antitumor activity against lymphocytic leukemia P388 [1]: an antitumor activity against lymphocytic leukemia P388, etc.
C=CCC1(C)Nc2c(O)cc3c(c2C1=O)C(CBr)CN3C(=O)c1cc2cc(OC)c(OC)c(OC)c2[nH]1 (stereo not drawn) [Compound 25] | – | – | 9.54 | –
C=CCOC(=O)Oc1cc2c(c3c1NC(C)(C(=O)OC)C3=O)C(CBr)CN2C(=O)c1cc2cc(OC)c(OC)c(OC)c2[nH]1 (stereo not drawn) [Compound 14] | 9.85 | 0.5 mg/kg | – | –
COC(=O)C1(C)Nc2c(OC(C)=O)cc3c(c2C1=O)C(CBr)CN3C(=O)c1cc2cc(OC)c(OC)c(OC)c2[nH]1 (stereo not drawn) [Compound 7] | – | 0.063 mg/kg | – | –
COC(=O)C1(C)Nc2c(O[Si](C)(C)C(C)(C)C)cc3c(c2C1OC(C)=O)C(CBr)CN3C(=O)c1cc2cc(OC)c(OC)c(OC)c2[nH]1 (stereo not drawn) [Compound 8] | – | 2.5 mg/kg | – | –
